Measurements from patent US12077503B2, “Substituted cyclic amides and their use as herbicides” (FMC CORPORATION, priority 2015, dated 2024).

How the values were obtained:
Type in all cases: in vivo
corn (Zea mays) [1] = assay: Test G Pre-Emergence Protocol; details: Zea mays, pre-emergence, 312 h, evaluated after 13 days; for plant injury at 15.625 g/ha: 15.625 g ai/ha; for plant injury at 15.625 g/ha / plant injury at 250 g/ha: read-out: Corn damage rating (100=total damage to plant; 0=no damage to plant); for plant injury at 62.5 g/ha: 62.5 g ai/ha, 100=total damage to plant, 0=no damage to plant, read-out: plant damage rating, Corn; for plant injury at 250 g/ha: 250 g ai/ha
Summary of the method: (§1)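 Herbicidal effect was rated 13 days post-application on a scale where 100 equals total damage. Spraying took place the day after sowing, using 15.625, 62.5 or 250 g/ha of compound in a 50:50 acetone/water solution with 0.5% Tween 20.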

[2] = system: velvetleaf (Abutilon theophrasti); assay: Test G Pre-Emergence Protocol; details: Abutilon theophrasti, pre-emergence, 312 h, evaluated after 13 days; for pest or weed control at 15.625 g/ha: 15.625 g ai/ha; for pest or weed control at 15.625 g/ha / pest or weed control at 250 g/ha: read-out: Velvetleaf damage rating (100=total damage to plant; 0=no damage to plant); for pest or weed control at 62.5 g/ha: 62.5 g ai/ha, 100=total damage to plant, 0=no damage to plant, read-out: plant damage rating, Velvetleaf; for pest or weed control at 250 g/ha: 250 g ai/ha
Summary of the method: as §1

[3] = system: giant foxtail (Setaria faberi); assay: Test G Pre-Emergence Protocol; details: Setaria faberi, pre-emergence, 312 h, evaluated after 13 days; for pest or weed control at 15.625 g/ha: 15.625 g ai/ha; for pest or weed control at 15.625 g/ha / pest or weed control at 250 g/ha: read-out: Foxtail, Giant damage rating (100=total damage to plant; 0=no damage to plant); for pest or weed control at 62.5 g/ha: 62.5 g ai/ha, 100=total damage to plant, 0=no damage to plant, read-out: plant damage rating, Foxtail, Giant; for pest or weed control at 250 g/ha: 250 g ai/ha
Summary of the method: as §1

[4] = system: redroot pigweed (Amaranthus retroflexus); assay: Test G Pre-Emergence Protocol; details: Amaranthus retroflexus, pre-emergence, 312 h, evaluated after 13 days; for pest or weed control at 15.625 g/ha: 15.625 g ai/ha; for pest or weed control at 15.625 g/ha / pest or weed control at 250 g/ha: read-out: Pigweed, Redroot damage rating (100=total damage to plant; 0=no damage to plant); for pest or weed control at 62.5 g/ha: 62.5 g ai/ha, 100=total damage to plant, 0=no damage to plant, read-out: plant damage rating, Pigweed, Redroot; for pest or weed control at 250 g/ha: 250 g ai/ha
Summary of the method: as §1

[5] = system: barnyardgrass (Echinochloa crus-galli); assay: Test G Pre-Emergence Protocol; details: Echinochloa crus-galli, pre-emergence, 312 h, evaluated after 13 days; for pest or weed control at 15.625 g/ha: 15.625 g ai/ha, read-out: Barnyard grass damage rating (100=total damage to plant; 0=no damage to plant); for pest or weed control at 62.5 g/ha: 62.5 g ai/ha, 100=total damage to plant, 0=no damage to plant, read-out: plant damage rating, Barnyardgrass; for pest or weed control at 250 g/ha: 250 g ai/ha, read-out: Barnyardgrass damage rating (100=total damage to plant; 0=no damage to plant)
Summary of the method: as §1

[6] = system: ivy-leaved morning glory (Ipomoea hederacea); assay: Test G Pre-Emergence Protocol; details: Ipomoea, pre-emergence, 312 h, evaluated after 13 days; for pest or weed control at 15.625 g/ha: 15.625 g ai/ha, read-out: Morning-glory, Ivy-leaved damage rating (100=total damage to plant; 0=no damage to plant); for pest or weed control at 62.5 g/ha: 62.5 g ai/ha, 100=total damage to plant, 0=no damage to plant, read-out: plant damage rating, Morningglory, Ivy-leaved; for pest or weed control at 250 g/ha: 250 g ai/ha, read-out: Morningglory, Ivy-leaved damage rating (100=total damage to plant; 0=no damage to plant)
Summary of the method: as §1

corn (Zea mays) [7] = assay: Test G Post-Emergence Protocol; details: Zea mays, post-emergence, 312 h; for plant injury at 15.625 g/ha: 15.625 g ai/ha, evaluated after 13 days (100=total damage to plant; 0=no damage to plant), read-out: Corn damage rating; for plant injury at 62.5 g/ha: 62.5 g ai/ha, read-out: Corn damage rating (100=total damage to plant; 0=no damage to plant); for plant injury at 62.5 g/ha / plant injury at 250 g/ha: evaluated after 13 days; for plant injury at 250 g/ha: 250 g ai/ha, read-out: damage to plant, Corn (100=total damage to plant; 0=no damage to plant)
Summary of the method: (§2)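 Values are percent visual injury at 13 days after treatment (0 none, 100 total). Treatment was a post-emergence spray at 15.625, 62.5 or 250 g/ha on 8-day-old pot plants kept at 24/16 °C.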

[8] = system: velvetleaf (Abutilon theophrasti); assay: Test G Post-Emergence Protocol; details: Abutilon theophrasti, post-emergence, 312 h; for pest or weed control at 15.625 g/ha: 15.625 g ai/ha, evaluated after 13 days (100=total damage to plant; 0=no damage to plant), read-out: Velvetleaf damage rating; for pest or weed control at 62.5 g/ha: 62.5 g ai/ha, read-out: Velvetleaf damage rating (100=total damage to plant; 0=no damage to plant); for pest or weed control at 62.5 g/ha / pest or weed control at 250 g/ha: evaluated after 13 days; for pest or weed control at 250 g/ha: 250 g ai/ha, read-out: damage to plant, Velvetleaf (100=total damage to plant; 0=no damage to plant)
Summary of the method: as §2

[9] = system: giant foxtail (Setaria faberi); assay: Test G Post-Emergence Protocol; details: Setaria faberi, post-emergence, 312 h; for pest or weed control at 15.625 g/ha: 15.625 g ai/ha, evaluated after 13 days (100=total damage to plant; 0=no damage to plant), read-out: Foxtail, Giant damage rating; for pest or weed control at 62.5 g/ha: 62.5 g ai/ha, read-out: Foxtail, Giant damage rating (100=total damage to plant; 0=no damage to plant); for pest or weed control at 62.5 g/ha / pest or weed control at 250 g/ha: evaluated after 13 days; for pest or weed control at 250 g/ha: 250 g ai/ha, read-out: damage to plant, Foxtail, Giant (100=total damage to plant; 0=no damage to plant)
Summary of the method: as §2

[10] = system: redroot pigweed (Amaranthus retroflexus); assay: Test G Post-Emergence Protocol; details: Amaranthus retroflexus, post-emergence, 312 h; for pest or weed control at 15.625 g/ha: 15.625 g ai/ha, evaluated after 13 days (100=total damage to plant; 0=no damage to plant), read-out: Pigweed, Redroot damage rating; for pest or weed control at 62.5 g/ha: 62.5 g ai/ha, read-out: Pigweed, Redroot damage rating (100=total damage to plant; 0=no damage to plant); for pest or weed control at 62.5 g/ha / pest or weed control at 250 g/ha: evaluated after 13 days; for pest or weed control at 250 g/ha: 250 g ai/ha, read-out: damage to plant, Pigweed, Redroot (100=total damage to plant; 0=no damage to plant)
Summary of the method: as §2

[11] = system: barnyardgrass (Echinochloa crus-galli); assay: Test G Post-Emergence Protocol; details: Echinochloa crus-galli, post-emergence, 312 h; for pest or weed control at 15.625 g/ha: 15.625 g ai/ha, evaluated after 13 days (100=total damage to plant; 0=no damage to plant), read-out: Barnyardgrass damage rating; for pest or weed control at 62.5 g/ha: 62.5 g ai/ha, read-out: Barnyardgrass damage rating (100=total damage to plant; 0=no damage to plant); for pest or weed control at 62.5 g/ha / pest or weed control at 250 g/ha: evaluated after 13 days; for pest or weed control at 250 g/ha: 250 g ai/ha, read-out: damage to plant, Barnyardgrass (100=total damage to plant; 0=no damage to plant)
Summary of the method: as §2

[12] = system: ivy-leaved morning glory (Ipomoea hederacea); assay: Test G Post-Emergence Protocol; details: Ipomoea, post-emergence, 312 h; for pest or weed control at 15.625 g/ha: 15.625 g ai/ha, evaluated after 13 days (100=total damage to plant; 0=no damage to plant), read-out: Morningglory, Ivy-leaved damage rating; for pest or weed control at 62.5 g/ha: 62.5 g ai/ha, read-out: Morningglory, Ivy-leaved damage rating (100=total damage to plant; 0=no damage to plant); for pest or weed control at 62.5 g/ha / pest or weed control at 250 g/ha: evaluated after 13 days; for pest or weed control at 250 g/ha: 250 g ai/ha, read-out: damage to plant, Morningglory, Ivy-leaved (100=total damage to plant; 0=no damage to plant)
Summary of the method: as §2

| SMILES | plant injury at 15.625 g/ha (corn (Zea mays) [1]) | plant injury at 62.5 g/ha (corn (Zea mays) [1]) | plant injury at 250 g/ha (corn (Zea mays) [1]) | pest or weed control at 15.625 g/ha [2] | pest or weed control at 62.5 g/ha [2] | pest or weed control at 250 g/ha [2] | pest or weed control at 15.625 g/ha [3] | pest or weed control at 62.5 g/ha [3] | pest or weed control at 250 g/ha [3] | pest or weed control at 15.625 g/ha [4] | pest or weed control at 62.5 g/ha [4] | pest or weed control at 250 g/ha [4] | pest or weed control at 15.625 g/ha [5] | pest or weed control at 62.5 g/ha [5] | pest or weed control at 250 g/ha [5] | pest or weed control at 15.625 g/ha [6] | pest or weed control at 62.5 g/ha [6] | pest or weed control at 250 g/ha [6] | plant injury at 15.625 g/ha (corn (Zea mays) [7]) | plant injury at 62.5 g/ha (corn (Zea mays) [7]) | other results |
| --- | --- | --- | --- | --- | --- | --- | --- | --- | --- | --- | --- | --- | --- | --- | --- | --- | --- | --- | --- | --- | --- |
| CN1C[C@@H](c2ccc(C(F)(F)F)cc2)[C@H](C(=O)Nc2nccc(C(F)(F)F)n2)C1=O (racemic) [Compound 1547] | 0% | 0% | 0% | 0% | 0% | 0% | 0% | 0% | 0% | 0% | 0% | 0% | 0% | 0% | 0% | 0% | 0% | 0% | 0% | 0% | plant injury at 250 g/ha (corn (Zea mays) [7]): 0%; pest or weed control at 15.625 g/ha [8]: 0%; pest or weed control at 62.5 g/ha [8]: 0%; pest or weed control at 250 g/ha [8]: 0%; pest or weed control at 15.625 g/ha [9]: 0%; pest or weed control at 62.5 g/ha [9]: 0%; pest or weed control at 250 g/ha [9]: 0%; pest or weed control at 15.625 g/ha [10]: 0%; pest or weed control at 62.5 g/ha [10]: 0%; pest or weed control at 250 g/ha [10]: 0%; pest or weed control at 15.625 g/ha [11]: 0%; pest or weed control at 62.5 g/ha [11]: 0%; pest or weed control at 250 g/ha [11]: 0%; pest or weed control at 15.625 g/ha [12]: 0%; pest or weed control at 62.5 g/ha [12]: 0%; pest or weed control at 250 g/ha [12]: 0% |
| COc1cccc(NC(=O)[C@H]2C(=O)N(C)C[C@@H]2c2ccc(C(F)(F)F)cc2)c1C (racemic) [Compound 1446] | 0% | 0% | 0% | 0% | 0% | 0% | 0% | 0% | 40% | 0% | 0% | 0% | 0% | 0% | 0% | 0% | 0% | 0% | 0% | 0% | plant injury at 250 g/ha (corn (Zea mays) [7]): 0%; pest or weed control at 15.625 g/ha [8]: 0%; pest or weed control at 62.5 g/ha [8]: 0%; pest or weed control at 250 g/ha [8]: 0%; pest or weed control at 15.625 g/ha [9]: 0%; pest or weed control at 62.5 g/ha [9]: 0%; pest or weed control at 250 g/ha [9]: 0%; pest or weed control at 15.625 g/ha [10]: 0%; pest or weed control at 62.5 g/ha [10]: 0%; pest or weed control at 250 g/ha [10]: 0%; pest or weed control at 15.625 g/ha [11]: 0%; pest or weed control at 62.5 g/ha [11]: 0%; pest or weed control at 250 g/ha [11]: 0%; pest or weed control at 15.625 g/ha [12]: 0%; pest or weed control at 62.5 g/ha [12]: 0%; pest or weed control at 250 g/ha [12]: 0% |
| CN1C[C@H](c2ccc(C(C)(C)C#N)cc2)[C@@H](C(=O)Nc2ccccc2F)C1=O (racemic) [Compound 1408] | 0% | 0% | 10% | 0% | 0% | 0% | 0% | 20% | 70% | 0% | 0% | 10% | 0% | 0% | 20% | 0% | 0% | 0% | 0% | 0% | plant injury at 250 g/ha (corn (Zea mays) [7]): 20%; pest or weed control at 15.625 g/ha [8]: 0%; pest or weed control at 62.5 g/ha [8]: 0%; pest or weed control at 250 g/ha [8]: 10%; pest or weed control at 15.625 g/ha [9]: 0%; pest or weed control at 62.5 g/ha [9]: 0%; pest or weed control at 250 g/ha [9]: 60%; pest or weed control at 15.625 g/ha [10]: 0%; pest or weed control at 62.5 g/ha [10]: 0%; pest or weed control at 250 g/ha [10]: 0%; pest or weed control at 15.625 g/ha [11]: 0%; pest or weed control at 62.5 g/ha [11]: 0%; pest or weed control at 250 g/ha [11]: 40%; pest or weed control at 15.625 g/ha [12]: 0%; pest or weed control at 62.5 g/ha [12]: 0%; pest or weed control at 250 g/ha [12]: 20% |
